Data published in the SangsterLogP compilation.

Row | Compound | logP
1 | N#Cc1ccc(N=C=S)cc1 | 2.65
2 | COc1ccc(N=C=S)cc1 | 3.58
3 | O=C(O)c1cccc(N=C=S)c1 | 2.4
4 | CC(C)CN=C=S | 2.82
5 | Cc1ccc(N=C=S)cc1 | 3.9
6 | CN(C)c1ccc(N=C=S)cc1 | 3.96
7 | S=C=Nc1cccc(Cl)c1 | 3.36
8 | CCC(C)N=C=S (stereo not drawn) | 2.81
9 | Oc1cccc(N=C=S)c1 | 3.23
10 | O=[N+]([O-])c1ccc(N=C=S)cc1 | 3.55
11 | S=C=Nc1ccc(I)cc1 | 4.22
12 | O=C(O)c1ccc(N=C=S)cc1 | 2.44
13 | CN=C=S | 0.94
14 | CCCCN=C=S | 2.92
15 | S=C=Nc1ccc(Cl)cc1 | 3.91
16 | COc1cccc(N=C=S)c1 | 3.68
17 | N#Cc1cccc(N=C=S)c1 | 3.13
18 | S=C=Nc1cccc(Br)c1 | 4.12
